Results from US12404304B1, “Telomerase reverse transcriptase (TERT) expression enhancing compounds and methods for using the same” (Sierra Sciences, LLC, priority 2007, dated 2025).
Where two headings read alike, the source gives them in different places.

Legend:
[1] = test system: human TERT expression (hTERT mRNA); assay: Quantitative real-time RT-PCR of hTERT mRNA expression (Ct, transcripts) in compound-treated cells; type: cell-based
Text: Telomerase is a ribonucleoprotein complex composed of the catalytic protein subunit (human telomerase reverse transcriptase or hTERT) and the RNA template. hTERT expression level can be measured by PCR.
Briefly, amplification of the target sequence is monitored per PCR cycle by detecting the fluorescence signal emitted by an internal probe that is degraded by the 5′ nuclease activity of the Taq polymerase. The emission signal accumulates in each sample, and the Ct required to reach a given fluorescence threshold is determined (Ct stands for Cycle Threshold and is a measure of the number of PCR cycles that are required to amplify a target—thus, a lower Ct score means that there is more abundant hTERT mRNA). Thus, the Ct value of a sample inversely correlates to the quantity of the starting cDNA which correlates to the number of mRNA transcripts. Using the cDNA of known quantity, a standard curve can be generated and used to determine the starting amount of mRNA transcripts based on the […] of each sample.
Quantitative real-time PCR can be done on cDNA from test compound-treated and nontreated cells by use of a ABI Prism 7900 Sequence Detection System (PE Applied Biosystems, Foster City, CA) following the Assays-on-Demand protocol (PE Applied Biosystems, Foster City, CA). Quantitative data can be analyzed using the Sequence Detection System software version 2.1 (PE Applied Biosystems).
The following compounds were tested in assays designed to identify compounds that enhance human TERT expression.

[2] = test system: viable cells in culture; assay: Cell viability assay (CellTiter-Glo Luminescent Cell Viability Assay, ATP quantitation, percent of vehicle control)
Procedure: Cell viability is determined using a homogeneous method, such as CellTiter-Glo® Luminescent Cell Viability Assay (Promega Corporation, Madison, WI.) to determine the number of viable cells in culture These assays are based on quantitation of the ATP present, which signals the presence of metabolically active cells. Luminescent values of compound treated cells are compared to that of cells treated with vehicle alone to determine the average cell viability as a percent of control.

Compound	Average Number of hTERT Transcripts [1]	Average Cell Viability after 24 Hours (% DMSO) [2]	Average Number of hTERT Transcripts ([1]; quantitative real-time RT-PCR)
CCn1c(COc2ccc(C(C)C)cc2)nnc1SCC(=O)Nc1nccs1 [compound 1405]	3.33	110.82 % DMSO	
Cc1ccc(NC(=O)NCc2ccccc2F)cc1C [compound 1353]		87.98 % DMSO	3.61
Nc1c2ccccc2nc2ccccc12 [compound 1456]	92.07	57.96 % DMSO	
Cc1c(OS(=O)(=O)c2ccccc2)ccc2c3c(c(=O)oc12)CCCC3 [compound 1533]	35.76	99.57 % DMSO	
CC(=O)NC(c1ccc(N(C)C)cc1)c1cc(Cl)c2cccnc2c1O (stereo not shown) [compound 1059]		53.52 % DMSO	26.79
COC(=O)COc1ccc(NC(=O)c2ccccc2I)cc1 [compound 1536]	7.34	65.12 % DMSO	
Cc1nn2c(=O)c(Cc3ccc(Br)cc3)c(C)[nH]c2c1-c1ccccc1 [compound 1165]		55.73 % DMSO	132.12
CCCNC(=O)c1cc(-c2cccs2)on1 [compound 1188, 5-thiophen-2-yl-isoxazole-3-carboxylic acid propylamide]		88.71 % DMSO	295.07
Cc1ccnc(NC(c2ccc([N+](=O)[O-])cc2)c2ccc3ccc(C)nc3c2O)c1 (stereo not shown) [compound 1081]		70.69 % DMSO	18.87
COC(=O)COc1ccc2c(=O)c(Oc3ccc(-c4ccccc4)cc3)coc2c1 [compound 1400]	12.41	80.39 % DMSO	
Cc1cccc(NC(=O)CSc2nnc(CNC(=O)c3ccc(Br)cc3)n2C)c1 [compound 1427]	5.16	107.40 % DMSO	
O=C(CN1C(C(=O)c2ccccc2)=C(N2CCCCC2)c2ccccc2S1(=O)=O)c1ccccc1 [compound 1211]		81.77 % DMSO	52.31
O=C(NCCCN1CCCC1=O)c1cc(-c2cccs2)on1 [compound 1518]	302.69	104.12 % DMSO	
Cc1ccc(Cc2c(C)nn(-c3nc4ccccc4[nH]3)c2O)cc1 [compound 1143]		35.07 % DMSO	22.65
CCOC(=O)c1cc2ccc(OC(=O)COc3ccc(C)cc3)cc2oc1=O [compound 1307]		80.83 % DMSO	8.66
O=c1cnnc(N/N=C/c2ccccn2)[nH]1 [compound 1285]		65.50 % DMSO	97.75
Cc1ccc(C)c(OCC(=O)Nc2cc(Cl)c(Cl)cc2Cl)c1 [compound 1390]	4.81	106.51 % DMSO	
CC(C)C(=O)NC(c1ccc(C(C)C)cc1)c1ccc2ccccc2c1O (stereo not shown) [compound 1377]	10.23	67.09 % DMSO	
COC(=O)COc1ccc(CSc2nnc(-c3ccc(Cl)cc3)n2-c2ccccc2)cc1 [compound 1388]	42.56	29.68 % DMSO	
CC(C)Cc1nnc(SCC(=O)Nc2ccc(Br)cn2)[nH]1 [compound 1350]		98.43 % DMSO	5.91
O=C(NCCc1ccncc1)c1cc(-c2cccs2)on1 [compound 1524]	562.51	103.34 % DMSO	
O=C(NCCCn1ccnc1)c1cc(-c2cccs2)on1 [compound 1186]		94.79 % DMSO	367.36

Compound	Average Number of hTERT Transcripts [1]	Average Cell Viability after 24 Hours (% DMSO) [2]	Average Number of hTERT Transcripts ([1]; quantitative real-time RT-PCR)
Cc1cc(=O)n2ncc(-c3ccc(Cl)cc3)c2[nH]1 [compound 1157]		71.08 % DMSO	16.13
O=c1c(-c2ccccc2)c[nH]c2c(-c3ccccc3)cnn12 [compound 1161]		62.93 % DMSO	139.82
S=C(Nc1cccc(Cl)c1)Nc1cc(Cl)ccc1Cl [compound 1345]		45.42 % DMSO	24.88
CCOC(=O)c1nn(-c2ccccc2)c(=O)c2c(NC(=O)c3ccc4c(c3)OCO4)scc12 [compound 1298]		101.83 % DMSO	8.68
CC1(C(=O)O)CC(=O)N=C2C=CC(Cl)=CN21 (stereo not shown) [compound 1329]		94.31 % DMSO	3.63
CCOc1ccc(N2C(=O)CC(N3CCC4(CC3)OCCO4)C2=O)cc1 (stereo not shown) [compound 1360]		108.82 % DMSO	16.98
O=C(CS(=O)(=O)c1ccccc1)Nc1nc(-c2ccccn2)cs1 [compound 1202]		72.91 % DMSO	141.08
Cc1ccc(O)c(/C=N/NC(=O)c2ccc(Br)cc2)c1 [compound 1263]		64.51 % DMSO	53.36
Cc1cc(C)[n+]2nc3n(-c4ccccc4)c(C)cc(C)c-3c2n1 [compound 1227]		77.50 % DMSO	72.86
CCN(CC)c1ccc(/C=N/NC(=O)C2CC2c2ccccc2)c(O)c1 (stereo not shown) [compound 1528]	24.18	69.89 % DMSO	
COc1ccccc1OCC(=O)N/N=C/c1cccc2cccnc12 [compound 1288]		78.28 % DMSO	18.81
CC1=NN(c2nc3ccccc3s2)C(=O)C1CCC(C)C (stereo not shown) [compound 1109]		67.53 % DMSO	35.79
CCCCN1C(C(=O)c2ccccc2)=C(OC(=O)CC)c2ccccc2S1(=O)=O [compound 1215]		52.19 % DMSO	7.76
Cc1ccnc(NC(c2cccc([N+](=O)[O-])c2)c2ccc3ccc(C)nc3c2O)c1 (stereo not shown) [compound 1084]		65.08 % DMSO	11.54
COC(=O)COc1ccc(NC(=O)CSc2ccc(Cl)cc2)cc1 [compound 1346]		56.33 % DMSO	31.23
O=C(CCc1ccccc1)NC(c1ccc([N+](=O)[O-])cc1)c1c(O)ccc2ccccc12 (stereo not shown) [compound 1393]	23.22	62.25 % DMSO	
Cn1c(-c2nnc(SCC(=O)NCc3nc4ccccc4n3C)o2)cc2ccccc21 [compound 1516]	127.39	87.09 % DMSO	
O=C(CSc1ccc(-c2ccccn2)nn1)Nc1ccccc1F [compound 1257]		82.05 % DMSO	37.50
C=CCNC(=O)c1cc(-c2cccs2)on1 [compound 1192]		95.64 % DMSO	279.74
CCCc1c(C)[nH]c2c(-c3ccc(Cl)cc3)c(C)nn2c1=O [compound 1155]		80.19 % DMSO	15.30
Cc1cc(OCC(=O)N/N=C/c2c(C)nn(-c3ccccc3)c2O)ccc1Cl [compound 1485]	48.25	112.70 % DMSO	
Cc1ccc(NC(=O)CCC(=O)OCC(=O)c2ccc(Br)cc2)c(C)c1 [compound 1554]	46.62	71.31 % DMSO	
